# Measured values reported in patent publication US8771983B2, “Method and kit for expressing protein under regulation of the expression from repeated sequence formed by gene amplification, and transformant” (National University of Corporation Hiroshima University, priority 2004, dated 2014).
# Tested on: expression of d2EGFP in human colon cancer COLO 320DM cells
# Assay: Level of expression of d2EGFP by cell sorter in DM clone treated with 5-aza (Example 9)
# Assay type: cell-based
# Details: DM clone treated with 3 μM of 5-aza for 3 days, then Doxycycline 1 μg/ml for 2 days
# Description: An equimolar mixture of a plasmid (pSFVdhfr/d2EGFP) and pTet-ON plasmid (Clontech Laboratories Inc.) was simultaneously transfected into human colon cancer COLO 320DM cells. The plasmid (pSFVdhfr/d2EGFP) was a plasmid having (a) IR and MAR derived from human DHFR gene locus, (b) Blasticidin tolerance gene, and (c) d2EGFP gene that was under control of TRE-promoter (Tetracycline inducing promoter). Meanwhile, the pTet-ON plasmid was a plasmid having Tet-ON gene encoding the transcription activating factor (Tet-ON protein) of TRE-promoter. The cells were selected with 5 μg/ml of Blasticidin thereby obtaining a polyclonal population of transformed cells. […] In FIG. 20, the detected base sequence derived from the pSFVdhfr/d2EGFP plasmid is indicated by the arrow. […]
# In each culture solution of the two clones, 3 μM of 5-aza was added and thereby the clones were treated with 5-aza for 3 days. […] After the culturing, the level of the expression of d2EGFP in each clone was analyzed by a cell sorter. […] This polyclonal population of transformed cells was subjected to the induction of expression of d2EGFP with Doxycycline and a level of the expression of d2EGFP therein was analyzed by using the cell sorter in the same way as described above. […] FIG. 21(a) illustrates the result of the fluorescence intensity measurements of HSR clone two days after the addition of Doxycycline. […]
compound,measurement,value
"Nc1ncn([C@H]2C[C@H](O)[C@@H](CO)O2)c(=O)n1 [5-aza, 5-aza-2′-deoxycytidine]",accumulated fluorescence intensity,238113
